Experimental findings from ChEMBL document CHEMBL1932968, “Cyclic amino acid linkers stabilizing key loops of brain derived neurotrophic factor” (Bioorg Med Chem Lett, 2012) are described below.

Molecules are shown by their SMILES. The source made the active and inactive calls. No cut-off for these calls is given here. *1 amine or outer side, *2 acyl side, *3 side chain or, on linkers, in order; H or OH if unused. Where a SMILES comes first, the peptide text is derived from it. [ ]: non-standard residue; d: D form. ACHC(1S,2S) = O=C([C@H]1CCCC[C@@H]1N[*:1])[*:2]; X2 = C[C@@]1(C(=O)[*:2])CCN1[*:1]; X1 = C[C@]1(C(=O)[*:2])CCN1[*:1]; Aze = O=C(O)[C@@H]1CCN1; βAla = NCCC(=O)O

In test [1] the target is BDNF/NT-3 growth factors receptor (Rattus norvegicus) (UniProt Q63604). Put plainly: Agonist activity at TrkB in E18 Sprague-Dawley rat hippocampal neurons assessed as induction of TrkB autophosphorylation at Tyr490 at 100 uM after 1 hr by Western blotting analysis. The test is classed as functional, tissue-based. To be noted: Hippocampus. Background: A western blot detects proteins with antibodies after separation by electrophoresis.
BDNF/NT-3 growth factors receptor (Rattus norvegicus), sequence (Q63604 whole entry): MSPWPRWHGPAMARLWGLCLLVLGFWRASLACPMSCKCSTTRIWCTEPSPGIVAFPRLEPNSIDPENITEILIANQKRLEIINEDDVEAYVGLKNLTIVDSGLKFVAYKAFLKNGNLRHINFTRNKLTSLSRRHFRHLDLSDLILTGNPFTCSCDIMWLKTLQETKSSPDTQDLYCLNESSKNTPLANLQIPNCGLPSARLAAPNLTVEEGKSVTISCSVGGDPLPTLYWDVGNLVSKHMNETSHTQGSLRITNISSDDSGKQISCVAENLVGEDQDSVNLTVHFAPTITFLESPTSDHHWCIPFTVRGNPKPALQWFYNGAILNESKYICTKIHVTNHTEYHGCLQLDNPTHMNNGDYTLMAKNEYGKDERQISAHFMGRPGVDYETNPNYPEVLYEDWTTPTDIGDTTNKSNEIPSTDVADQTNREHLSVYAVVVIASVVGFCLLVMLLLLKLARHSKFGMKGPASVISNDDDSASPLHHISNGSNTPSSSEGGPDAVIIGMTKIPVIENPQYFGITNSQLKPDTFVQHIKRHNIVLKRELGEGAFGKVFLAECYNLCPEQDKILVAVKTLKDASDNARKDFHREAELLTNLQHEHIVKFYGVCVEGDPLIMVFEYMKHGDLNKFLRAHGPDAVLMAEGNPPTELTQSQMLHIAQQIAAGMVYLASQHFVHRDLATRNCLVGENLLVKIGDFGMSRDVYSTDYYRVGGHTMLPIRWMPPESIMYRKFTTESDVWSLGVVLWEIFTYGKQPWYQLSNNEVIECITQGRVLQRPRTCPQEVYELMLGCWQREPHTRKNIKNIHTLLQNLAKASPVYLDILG

The target is the same in test [2]. The test can be described thus: Antagonist activity at TrkB in E18 Sprague-Dawley rat hippocampal neurons assessed as inhibition of BDNF-induced TrkB phosphorylation at Tyr490 at 100 uM preincubated for 1 hr followed by BDNF induction for 10 mins by Western blotting analysis. The conditions noted are these: Hippocampus. The test is classed as functional, tissue-based.

On to `CC(C)[C@@H]1NC(=O)[C@@]2(C)CCN2C(=O)CCNC(=O)[C@H](CCCCN)NC(=O)[C@H](CO)NC1=O`, for which the outcome in test [1] was inactive. Also, the inhibition result in test [2] was “inactive”.
On to `CC(C)[C@@H]1NC(=O)[C@H]2CCCC[C@@H]2NC(=O)CCNC(=O)[C@H](CCCCN)NC(=O)[C@H](CO)NC1=O`, for which, in test [1], the outcome was inactive. In addition, the inhibition entry in test [2] was “inactive”.
Turning to `CC(C)[C@@H]1NC(=O)[C@]2(C)CCN2C(=O)CCNC(=O)[C@H](CCCCN)NC(=O)[C@H](CO)NC1=O`, the outcome in test [1] was inactive. Moreover, in test [2], the inhibition result was “inactive”.
`N=C(N)NCCC[C@@H]1NC(=O)[C@H](CCCCN)NC(=O)[C@H](CCCCN)NC(=O)[C@H](CO)NC(=O)[C@H](CC(=O)O)NC(=O)[C@H]2CCCC[C@@H]2NC1=O` (cyclo(DSKKR[ACHC(1S,2S)])): in test [1], the outcome was inactive. Besides, the inhibition entry in test [2] was “Active”.
In the case of `N=C(N)NCCC[C@@H]1NC(=O)[C@H]2CCCC[C@@H]2NC(=O)[C@H](CC(=O)O)NC(=O)[C@H](CO)NC(=O)[C@H](CCCCN)NC(=O)[C@H](CCCCN)NC(=O)[C@H](CCCNC(=N)N)NC(=O)[C@H]2CCCC[C@@H]2NC(=O)[C@H](CC(=O)O)NC(=O)[C@H](CO)NC(=O)[C@H](CCCCN)NC(=O)[C@H](CCCCN)NC1=O` (cyclo(D[ACHC(1S,2S)]RKKSD[ACHC(1S,2S)]RKKS)), the outcome in test [1] was inactive. Further, the inhibition entry in test [2] is “Active”.
The like results for `CC(C)[C@@H]1NC(=O)[C@H]2CCCC[C@@H]2NC(=O)CNC(=O)[C@H](CCCCN)NC(=O)[C@H](CO)NC1=O` (cyclo(G[ACHC(1S,2S)]VSK)) were, in that order, “inactive” and “inactive”.
In the case of `CC(C)[C@@H]1NC(=O)[C@H]2CCCC[C@@H]2NC(=O)CNC(=O)[C@H](CCCCN)NC(=O)[C@H](CO)NC(=O)[C@H](C(C)C)NC(=O)[C@H]2CCCC[C@@H]2NC(=O)CNC(=O)[C@H](CCCCN)NC(=O)[C@H](CO)NC1=O` (cyclo(G[ACHC(1S,2S)]VSKG[ACHC(1S,2S)]VSK)), the result in test [1] was inactive.
Turning to `CC(C)[C@@H]1NC(=O)[C@]2(C)CCN2C(=O)CNC(=O)[C@H](CCCCN)NC(=O)[C@H](CO)NC(=O)[C@H](C(C)C)NC(=O)[C@@]2(C)CCN2C(=O)CNC(=O)[C@H](CCCCN)NC(=O)[C@H](CO)NC1=O` (cyclo(G[X1]VSKG[X2]VSK)), in test [1], the outcome was inactive. For the same compound, the inhibition entry in test [2] is “Active”.
On to `CC(C)[C@@H]1NC(=O)[C@H]2CCCC[C@@H]2NC(=O)CCNC(=O)[C@H](CCCCN)NC(=O)[C@H](CO)NC(=O)[C@H](C(C)C)NC(=O)[C@H]2CCCC[C@@H]2NC(=O)CCNC(=O)[C@H](CCCCN)NC(=O)[C@H](CO)NC1=O` (cyclo(K[βAla][ACHC(1S,2S)]VSK[βAla][ACHC(1S,2S)]VS)), for which the outcome in test [1] was inactive.
With `CC(C)[C@@H]1NC(=O)[C@@H]2CCN2C(=O)CNC(=O)[C@H](CCCCN)NC(=O)[C@H](CO)NC1=O` (cyclo([Aze]VSKG)), the outcome in test [1] was inactive. Besides, the inhibition entry in test [2] was “inactive”.
Consider `CC(C)[C@@H]1NC(=O)[C@@H]2CCN2C(=O)CNC(=O)[C@H](CCCCN)NC(=O)[C@H](CO)NC(=O)[C@H](C(C)C)NC(=O)[C@@H]2CCN2C(=O)CNC(=O)[C@H](CCCCN)NC(=O)[C@H](CO)NC1=O` (cyclo([Aze]VSKG[Aze]VSKG)), for which the outcome in test [1] was inactive.
For the compound `CC(C)[C@@H]1NC(=O)[C@@H]2CCN2C(=O)CCNC(=O)[C@H](CCCCN)NC(=O)[C@H](CO)NC1=O` (cyclo([Aze]VSK[βAla])), the result in test [1] was inactive. Also, the inhibition entry in test [2] is “inactive”.
Regarding `CC(C)[C@@H]1NC(=O)C2(C)CCN2C(=O)CNC(=O)[C@H](CCCCN)NC(=O)[C@H](CO)NC1=O` (mixture of isomers), the result in test [1] was inactive. Besides, the inhibition entry in test [2] was “inactive”.
